According to ChEMBL document CHEMBL1201862, “PubChem BioAssay data set” (2004):
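Cells were grown in 96-well plates and exposed to each compound for 48 hours at five concentrations; endpoints were interpolated linearly between bracketing concentrations, or set to the highest concentration if not reached. Abbreviation: GI50, concentration required for 50% inhibition of growth.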 Activity calls are given as the source filed them. Cut-off read from the data, not from the text of the source: active = GI50 up to about 1.1 µM and inactive = higher.

Experiments:
Experiment in all cases: DTP human tumour cell line panel, 48 h
786-0 = tested on: 786-0
ACHN = tested on: ACHN
HCT-15 = tested on: HCT-15
HL-60 = tested on: HL-60
HOP-62 = tested on: HOP-62
K562 = tested on: K562
KM12 = tested on: KM12
M14 = tested on: M14
OVCAR-3 = tested on: OVCAR-3
OVCAR-5 = tested on: OVCAR-5
RPMI-8226 = tested on: RPMI-8226
SF-268 = tested on: SF-268
SK-MEL-28 = tested on: SK-MEL-28
SK-MEL-2 = tested on: SK-MEL-2
SNB-19 = tested on: SNB-19
UO-31 = tested on: UO-31
Malme-3M = tested on: Malme-3M

Row | SMILES | GI50 (786-0) | GI50 (ACHN) | GI50 (HCT-15) | GI50 (HL-60) | GI50 (HOP-62) | GI50 (K562) | GI50 (KM12) | GI50 (M14) | GI50 (OVCAR-3) | GI50 (OVCAR-5) | GI50 (RPMI-8226) | GI50 (SF-268) | GI50 (SK-MEL-28) | GI50 (SK-MEL-2) | GI50 (SNB-19) | GI50 (UO-31) | GI50 (Malme-3M)
1 | CCCCCCCCCCCCCCCC[N+](C)(C)Cc1ccc(C[N+](C)(C)CCCCCCCCCCCCCCCC)cc1 | 2.5 µM (inactive) | 3.71 µM (inactive) | 3.66 µM | 2.3 µM (inactive) | 4.76 µM (inactive) | 2.06 µM (inactive) | 2.56 µM (inactive) | 2.89 µM (inactive) | 2.54 µM (inactive) | 1.91 µM (inactive) | 2.63 µM (inactive) | 2.38 µM (inactive) | 2.3 µM (inactive) | 2.04 µM (inactive) | 2.52 µM (inactive) | 25.8 µM (inactive) | –
2 | Nc1ccn(CCOC(c2ccccc2)P(=O)(O)O)c(=O)n1 (configuration not stated) | > 100 µM (inactive) | > 100 µM (inactive) | > 100 µM | > 100 µM (inactive) | – | – | > 100 µM (inactive) | – | > 100 µM (inactive) | > 100 µM (inactive) | – | > 100 µM (inactive) | > 100 µM (inactive) | > 100 µM (inactive) | > 100 µM (inactive) | > 100 µM (inactive) | > 100 µM (inactive)
3 | COc1ccc(Cc2nccc3cc(OC)c(OC)cc23)cc1 | > 100 µM (inactive) | 43.3 µM (inactive) | 57.3 µM | – | > 100 µM (inactive) | 48 µM (inactive) | 81.5 µM (inactive) | > 100 µM (inactive) | 50.4 µM (inactive) | 40.4 µM (inactive) | 20.9 µM (inactive) | 65.5 µM (inactive) | > 100 µM (inactive) | > 100 µM (inactive) | 54.6 µM (inactive) | 16.9 µM (inactive) | > 100 µM (inactive)
4 | CCOC(=O)c1cc2c(cn1)[nH]c1cccc(N)c12 | > 100 µM (inactive) | > 100 µM (inactive) | – | 14.6 µM (inactive) | > 100 µM (inactive) | > 100 µM (inactive) | > 100 µM (inactive) | > 100 µM (inactive) | > 100 µM (inactive) | > 100 µM (inactive) | – | > 100 µM (inactive) | > 100 µM (inactive) | – | > 100 µM (inactive) | > 100 µM (inactive) | > 100 µM (inactive)
5 | COC1CC(OC)C2OC(c3ccccc3)OCC2O1 (configuration not stated) | > 100 µM (inactive) | > 100 µM (inactive) | > 100 µM | > 100 µM (inactive) | > 100 µM (inactive) | > 100 µM (inactive) | > 100 µM (inactive) | > 100 µM (inactive) | > 100 µM (inactive) | > 100 µM (inactive) | – | – | > 100 µM (inactive) | > 100 µM (inactive) | – | > 100 µM (inactive) | > 100 µM (inactive)
6 | Cc1cccc2c(O)cc(=O)oc12 | > 100 µM (inactive) | > 100 µM (inactive) | – | > 100 µM (inactive) | > 100 µM (inactive) | > 100 µM (inactive) | > 100 µM (inactive) | > 100 µM (inactive) | > 100 µM (inactive) | > 100 µM (inactive) | > 100 µM (inactive) | > 100 µM (inactive) | > 100 µM (inactive) | – | > 100 µM (inactive) | > 100 µM (inactive) | > 100 µM (inactive)
7 | CCCCn1c(-c2ccccc2)cs/c1=N\N=C1C=C(C(C)(C)C)C(=O)C(C(C)(C)C)=C1 | > 100 µM (inactive) | > 100 µM (inactive) | > 100 µM | > 100 µM (inactive) | > 100 µM (inactive) | > 100 µM (inactive) | – | > 100 µM (inactive) | > 100 µM (inactive) | > 100 µM (inactive) | – | > 100 µM (inactive) | – | > 100 µM (inactive) | > 100 µM (inactive) | > 100 µM (inactive) | > 100 µM (inactive)
